Test results as given in patent publication US10981911B2, “Imidazopyrrolopyridine as inhibitors of the JAK family of kinases” (Janssen Pharmaceutica NV, priority 2016, dated 2021).
Like-named read-outs stand apart in the source and are kept apart here.

Assays:
[1] = tested on: P-gp (MDR1); test: MDCK-MDR1 permeability assay; assay type: in vitro ADME; details: dog; for Papp A→B at 60 min, 5 μM / Papp B→A at 60 min, 5 μM: MDCK-MDR1, pH 7.4, @ 5 μM; for Papp A→B at 60 min, 5 μM: apical to basolateral, without P-gp inhibitor; for Papp B→A at 60 min, 5 μM: basolateral to apical; for efflux ratio at 60 min, 5 μM: MDCK-MDR1, pH 7.4, MDCK-MDR1, 5 μM, read-out: Papp(B-A)/Papp(A-B) (efflux ratio)
Protocol: Permeability measurements were conducted according to the Cyprotex protocol using the MDCK-MDR1 cell line obtained from the NIH (Rockville, Md., USA). Cells between passage numbers 6-30 were seeded onto a Multiscreen Plate™ (Millipore) at a cell density of 3.4×10^5 cells/cm^2 and cultured for three days before permeability studies were conducted. The cells in this assay form a cohesive sheet of a single cell layer filing the surface area of the culture dish, also known as a confluent monolayer, and on day four the test compound was added to the apical side of the membrane and the transport of the compound across the monolayer was monitored over a time period of 60 min.
Test compounds were dissolved in DMSO at a concentration of 10 mM. The dosing solutions were prepared by diluting test compound with assay buffer (Hanks Balanced Salt Solution), pH 7.4, at a final concentration of 5 μM. For assessment of apical to basolateral (“A-B”) permeability, buffer was removed from the apical compartment and replaced with test compound dosing solution with or without the permeability glycoprotein (“PgP”, “P-gP”, “Pgp” or “P-gp”) inhibitor elacridar (2 μM). For assessment of basolateral to apical (“B-A”) permeability, buffer was removed from the companion plate and replaced with test compound dosing solution. Incubations were carried out in duplicate at 37° C. in an atmosphere of 5% CO2 with a relative humidity of 95%. Each assay included the reference markers propranolol (high permeability) and prazosin (PgP substrate). After incubation for 60 minutes, apical and basolateral samples were diluted and test compounds quantified by LC/MS/MS using an 8-point calibration in the range 0.0039 to 3 μM with appropriate dilution of the samples (receiver dilution factor=1; donor and C0 dilution factor=10). The permeability coefficient (Papp) for each compound was calculated from the following equation: Papp=(dQ/dt)/(C0×S), where dQ/dt is the rate of permeation of the drug across the cells, C0 is the donor compartment concentration at time zero, and S is the area of the cell monolayer.
The second and third columns in Table 7 show the values of Papp(A-B) for the apical-to-basolateral compound transport without (second column) and with a P-gp inhibitor (third column, noted as P^eapp(A-B)) that was elacridar. Papp(A-B) gives an indication of permeation extent across the cells in this assay, which is envisaged to model the transcellular transport across Pgp-expressing cells, such as Pgp-expressing gastrointestinal tract cells. P^eapp(A-B) values (Papp(A-B) in the presence of the P-gp inhibitor) given in column 3 are determined to confirm the role of P-gp in the compound efflux. […] Test compound efflux ratios are given in the fifth column of Table 7 as Papp(B-A)/Papp(A-B) by using the corresponding permeability coefficient values from the fourth and second columns in the same table.

[2] = Solubility assays in simulated gastric and simulated intestinal fluids; assay type: physicochemical; details: thermodynamic from solid, 2-5 days
Protocol: Test compounds were dissolved in DMSO at a concentration of 10 mM. The test compounds were dispensed (20 μL) into Nunc 1-mL-96-Deep-Well-PP plates, and the DMSO was evaporated via nitrogen blow down from a TurboVap 96 for 6 hours or until a dry residue was produced. Then, 400 μL of solubility media was added to the well containing the dry solid. […] After the incubation period, the samples were filtered through an AcroPrep 1-mL-96-Filter plate into a new 2-mL-96-Deep-Well-PP plate, and the supernatants were quantified by UV-HPLC using a 3-point calibration ranging from 0.004-0.55 mM. The solubility for each compound was calculated from the following equation: […] Solubilities are reported as long as the compound under study was sufficiently stable to complete the corresponding solubility determination.

[3] = tested on: IFNα pSTAT4 (JAK1/TYK2); test: IFNα pSTAT4 (JAK1/TYK2) cellular assay (AlphaLISA, PBMCs); assay type: cell-based; details: PBMC, IFNα at 4 ng/mL
Protocol: The AlphaLISA assay (based on Alpha Technology from PerkinElmer) was performed by first plating freshly thawed PBMCs (Biological Specialty Corporation) in 384-well plates at 100,000 cells per 6 μL per well in DMEM (Dulbecco's Modified Eagle Medium) containing 10% FBS (fetal bovine serum) and 1,000 I.U./mL penicillin and 1,000 μg/mL streptomycin. The cells were then treated with 2 μL/well of compounds diluted in DMSO at half-log titrated concentrations, with a highest test concentration of 10 μM and 0.5% final DMSO concentration, for thirty minutes at 37° C. Next, the cells were stimulated with 2 μL/well of IFNα (PBL Assay Science Cat. No. 11101-2) at 4 ng/mL for thirty minutes at 37° C. The cellular reactions were terminated by the addition of 2 μL/well of lysis buffer (PerkinElmer Cat. No. ALSU-PST4-A10K) followed by an incubation of five minutes at room temperature. 4 μL/well of acceptor mix (PerkinElmer Cat. No. ALSU-PST4-A10K) was added to the cells and incubated in the dark for one hour at room temperature. Then, 4 μL/well of donor mix (PerkinElmer Cat. No. ALSU-PST4-A10K) was added to the cells and incubated in the dark overnight at room temperature. Finally, the plates were read on a PerkinElmer EnVision for detection of the time-resolved fluorescence signal. The percentage of IFNα-dependent pSTAT4 inhibition was determined at the compound test concentrations; and for each compound, a dose curve was generated and the IC50 was calculated. Compound IC50 was calculated by nonlinear regression, sigmoidal dose response analysis of the half-log dilution titration curve of the compound concentration vs. Alpha signal. The term “Alpha” is defined in the immediately preceding cellular assay description.

[4] = tested on: IL-2 pSTAT5 (JAK1/JAK3); test: IL-2 pSTAT5 (JAK1/JAK3) cellular assay (AlphaLISA, PBMCs); assay type: cell-based; details: PBMC, IL-2 at 5 ng/mL
Protocol: The AlphaLISA assay (based on Alpha Technology from PerkinElmer) was performed by first plating freshly thawed PBMCs (Biological Specialty Corporation) in 384-well plates at 30,000 cells per 4 μL per well in HBSS (Hanks' Balanced Salt Solution) containing 0.1% IgG (immunoglobulin G)-free, protease-free BSA (bovine serum albumin) (Jackson ImmunoResearch Cat. No. 001-000-161). The cells were then treated with 2 μL/well of compounds diluted in DMSO at half-log titrated concentrations, with a highest test concentration of 10 μM and 0.5% final DMSO concentration, for thirty minutes at 37° C. […] Compound IC50 was calculated by nonlinear regression, sigmoidal dose response analysis of the half-log dilution titration curve of the compound concentration vs. Alpha signal. The acronym “Alpha” stands for amplified luminescent proximity homogeneous assay; the Alpha signal is a luminescent/fluorescent signal.

[5] = simulated gastric fluid, ambient temperature, read-out: SGF solubility
[6] = fassif, simulated intestinal fluid, fasted state pH 6.5, ambient temperature, read-out: SIF solubility

Row | SMILES | Papp A→B at 60 min, 5 μM [1] | Papp B→A at 60 min, 5 μM [1] | efflux ratio at 60 min, 5 μM [1] | solubility [2, 5] | IC50 [3] | solubility [2, 6] | IC50 [4]
1 | CC(C)(O)CNC(=O)Cc1nc2cnc3[nH]ccc3c2n1[C@H]1CC[C@H](CC#N)CC1 [Ex. 1, 2-(1-((1r,4r)-4-(Cyanomethyl)cyclohexyl)-1,6-dihydroimidazo[4,5-d]pyrrolo[2,3-b]pyridin-2-yl)-N-(2-hydroxy-2-methylpropyl)acetamide] | < 0.5 ×10⁻⁶ cm/s | 0.9 ×10⁻⁶ cm/s | > 1.9 | > 400 µM |  |  | 
2 | N#CCC1CCC(n2c(-c3c[nH]cn3)nc3cnc4[nH]ccc4c32)CC1 (stereo not shown) [Ex. 2, 2-((1r,4r)-4-(2-(1H-Imidazol-4-yl)imidazo[4,5-d]pyrrolo[2,3-b]pyridin-1(6H)-yl)cyclohexyl)acetonitrile] | 1.1 ×10⁻⁶ cm/s | 4.8 ×10⁻⁶ cm/s | 4.4 | > 400 µM | 20.8 nM | > 400 µM | 9 nM
3 | N#CC[C@H]1CC[C@H](n2c(CC(=O)NCC3CC3)nc3cnc4[nH]ccc4c32)CC1 [Ex. 3, 2-(1-((1r,4r)-4-(Cyanomethyl)cyclohexyl)-1,6-dihydroimidazo[4,5-d]pyrrolo[2,3-b]pyridin-2-yl)-N-(cyclopropylmethyl)acetamide] | < 0.4 ×10⁻⁶ cm/s | 17 ×10⁻⁶ cm/s | > 41 | > 400 µM | 10.1 nM | > 400 µM | 6.4 nM
4 | N#CCCNC(=O)Cc1nc2cnc3[nH]ccc3c2n1[C@H]1CC[C@H](CC#N)CC1 [Ex. 4, N-(2-Cyanoethyl)-2-(1-((1r,4r)-4-(cyanomethyl)cyclohexyl)-1,6-dihydroimidazo[4,5-d]pyrrolo[2,3-b]pyridin-2-yl)acetamide] | 0.1 ×10⁻⁶ cm/s | 1.3 ×10⁻⁶ cm/s | 8.7 | > 400 µM | 64.7 nM | > 400 µM | 35.5 nM
5 | N#CC[C@H]1CC[C@H](n2c(CC(=O)NC3CCOCC3)nc3cnc4[nH]ccc4c32)CC1 [Ex. 5, 2-(1-((1r,4r)-4-(Cyanomethyl)cyclohexyl)-1,6-dihydroimidazo[4,5-d]pyrrolo[2,3-b]pyridin-2-yl)-N-(tetrahydro-2H-pyran-4-yl)acetamide] | < 0.4 ×10⁻⁶ cm/s | 1.8 ×10⁻⁶ cm/s | > 4.8 | > 400 µM | 38.1 nM |  | 6.4 nM
6 | N#CC[C@H]1CC[C@H](n2c(CC(=O)NCC3CCOCC3)nc3cnc4[nH]ccc4c32)CC1 [Ex. 10, 2-(1-((1r,4r)-4-(Cyanomethyl)cyclohexyl)-1,6-dihydroimidazo[4,5-d]pyrrolo[2,3-b]pyridin-2-yl)-N-((tetrahydro-2H-pyran-4-yl)methyl)acetamide] | < 0.3 ×10⁻⁶ cm/s | 2.5 ×10⁻⁶ cm/s | > 8.4 | > 400 µM | 39.4 nM | > 400 µM | 6.7 nM
7 | CC(C)(C#N)CNC(=O)Cc1nc2cnc3[nH]ccc3c2n1[C@H]1CC[C@H](CC#N)CC1 [Ex. 22, N-(2-Cyano-2-methylpropyl)-2-(1-((1r,4r)-4-(cyanomethyl)cyclohexyl)-1,6-dihydroimidazo[4,5-d]pyrrolo[2,3-b]pyridin-2-yl)acetamide] | < 0.4 ×10⁻⁶ cm/s | 3.6 ×10⁻⁶ cm/s | > 9 | > 400 µM | 38.5 nM |  | 9.7 nM
8 | N#CC[C@H]1CC[C@H](n2c(CC(=O)NCC3(O)CCC3)nc3cnc4[nH]ccc4c32)CC1 [Ex. 34, 2-(1-((1r,4r)-4-(Cyanomethyl)cyclohexyl)-1,6-dihydroimidazo[4,5-d]pyrrolo[2,3-b]pyridin-2-yl)-N-((1-hydroxycyclobutyl)methyl)acetamide] | 0.1 ×10⁻⁶ cm/s | 1.7 ×10⁻⁶ cm/s | 11.5 | > 400 µM | 42.8 nM | > 400 µM | 20.6 nM
9 | N#CCC12CCC(NC(=O)Cc3nc4cnc5[nH]ccc5c4n3[C@H]3CC[C@H](CC#N)CC3)(CC1)C2 [Ex. 55, N-(4-(Cyanomethyl)bicyclo[2.2.1]heptan-1-yl)-2-(1-((1r,4r)-4-(cyanomethyl)cyclohexyl)-1,6-dihydroimidazo[4,5-d]pyrrolo[2,3-b]pyridin-2-yl)acetamide] | < 0.4 ×10⁻⁶ cm/s | 7.1 ×10⁻⁶ cm/s | > 16.9 | > 400 µM | 40.4 nM |  | 16.8 nM
10 | N#CC[C@H]1CC[C@H](n2c(CC(=O)NCC3(O)CC3)nc3cnc4[nH]ccc4c32)CC1 [Ex. 85, 2-(1-((1r,4r)-4-(Cyanomethyl)cyclohexyl)-1,6-dihydroimidazo[4,5-d]pyrrolo[2,3-b]pyridin-2-yl)-N-((1-hydroxycyclopropyl)methyl)acetamide] | < 0.5 ×10⁻⁶ cm/s | 1.1 ×10⁻⁶ cm/s | > 2.2 | > 400 µM | 81.4 nM | > 400 µM | 13.9 nM
